Marks after values point to notes of the source that are not given here.
How the values were obtained:
P. falciparum strain D6 = assay: [3H]-hypoxanthine growth inhibition assay, P. falciparum D6; type: cell-based; conditions: Plasmodium falciparum; P. falciparum D6 (sensitive to chloroquine and pyrimethamine), [3H]-hypoxanthine incorporation; read-out: D6 IC50
How it was run: (§1)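 Parasites cultured in human O Rh+ RBCs in RPMI-1640-LPLF (low PABA and folic acid) with 10% human plasma, pH 6.9, 37° C, 5% O2/5% CO2/90% N2. Sorbitol-synchronised ring-stage cultures started at 1% parasitaemia; growth measured as [3H]-hypoxanthine incorporation in hypoxanthine-free medium. Compound stocks 1 mM in DMSO.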

P. falciparum strain W2 = assay: [3H]-hypoxanthine growth inhibition assay, P. falciparum W2; type: cell-based; conditions: Plasmodium falciparum; P. falciparum W2 (resistant to chloroquine and pyrimethamine), [3H]-hypoxanthine incorporation; read-out: W2 IC50
How it was run: as §1

[1] = test system: Plasmodium berghei (KBG-173 strain); assay: Plasmodium berghei assay in vivo (modified Thompson Test) in CD-1 mice; conditions: bid on days 3, 4 and 5; for Average Days Survival: 31 day experiment; for responders at 4 mg/kg / responders at 8 mg/kg / responders at 16 mg/kg / responders at 32 mg/kg / responders at 64 mg/kg: Plasmodium berghei, 744 h, CD-1 mice infected with P. berghei, read-out: Number of mice alive at day 31 (converted)
Procedure: In vivo antimalarial activity was tested in male or female Charles River CD-1 mice that were 4-5 weeks old and weighed 20-25 g They were housed in groups of 3 or 4 in standard plastic cages with wire tops, Bed-o-Cob® bedding, 12 hr/day of light, and maintained at 75° F. They were fed a standard Ralston Purina mouse chow and the cages and bottles were changed twice a week. Test compounds were ground in a mortar and pestle and diluted with enough vehicle to give a volume of 10 mL/kg of mouse weight. The oral doses were prepared in 0.5% hydroxyethylcellulose (Union Carbide Corp. WP 4400)/0.1% Tween-80 (Fisher Scientific T164-500). The amount of drug was calculated on the free base weight. The mice were infected intraperitoneally on day 0 with 5×10^4 erythrocytes parasitized with Plasmodium berghei (KBG-173 strain) from a donor mouse having a parasitemia between 5-10%. On days 3, 4 and 5 the test compounds were administered bid, spaced 6 hr apart, by oral gavage to the mice. Activity was measured by survival, with full activity defined as all animals living at day 31. Partial activity is defined as days of increased survival versus the infected non-treated controls. This in vivo model is a modification of the Thompson Test. For further description see Ager, A. L, Jr. Rodent Malaria Models. In Handbook of Experimental Pharmacology: Antimalarial Drugs. 1. 68/1; Peters, W., Richards, W. H. G., Eds.: Springer-Verlag: Berlin, 1984, pp. 231-33.

hERG potassium channel = hERG potassium channel (Homo sapiens, UniProt Q12809); assay: Whole cell patch clamp of cloned hERG potassium channels expressed in HEK293 cells; type: cell-based
Chain of hERG potassium channel (Q12809 whole entry): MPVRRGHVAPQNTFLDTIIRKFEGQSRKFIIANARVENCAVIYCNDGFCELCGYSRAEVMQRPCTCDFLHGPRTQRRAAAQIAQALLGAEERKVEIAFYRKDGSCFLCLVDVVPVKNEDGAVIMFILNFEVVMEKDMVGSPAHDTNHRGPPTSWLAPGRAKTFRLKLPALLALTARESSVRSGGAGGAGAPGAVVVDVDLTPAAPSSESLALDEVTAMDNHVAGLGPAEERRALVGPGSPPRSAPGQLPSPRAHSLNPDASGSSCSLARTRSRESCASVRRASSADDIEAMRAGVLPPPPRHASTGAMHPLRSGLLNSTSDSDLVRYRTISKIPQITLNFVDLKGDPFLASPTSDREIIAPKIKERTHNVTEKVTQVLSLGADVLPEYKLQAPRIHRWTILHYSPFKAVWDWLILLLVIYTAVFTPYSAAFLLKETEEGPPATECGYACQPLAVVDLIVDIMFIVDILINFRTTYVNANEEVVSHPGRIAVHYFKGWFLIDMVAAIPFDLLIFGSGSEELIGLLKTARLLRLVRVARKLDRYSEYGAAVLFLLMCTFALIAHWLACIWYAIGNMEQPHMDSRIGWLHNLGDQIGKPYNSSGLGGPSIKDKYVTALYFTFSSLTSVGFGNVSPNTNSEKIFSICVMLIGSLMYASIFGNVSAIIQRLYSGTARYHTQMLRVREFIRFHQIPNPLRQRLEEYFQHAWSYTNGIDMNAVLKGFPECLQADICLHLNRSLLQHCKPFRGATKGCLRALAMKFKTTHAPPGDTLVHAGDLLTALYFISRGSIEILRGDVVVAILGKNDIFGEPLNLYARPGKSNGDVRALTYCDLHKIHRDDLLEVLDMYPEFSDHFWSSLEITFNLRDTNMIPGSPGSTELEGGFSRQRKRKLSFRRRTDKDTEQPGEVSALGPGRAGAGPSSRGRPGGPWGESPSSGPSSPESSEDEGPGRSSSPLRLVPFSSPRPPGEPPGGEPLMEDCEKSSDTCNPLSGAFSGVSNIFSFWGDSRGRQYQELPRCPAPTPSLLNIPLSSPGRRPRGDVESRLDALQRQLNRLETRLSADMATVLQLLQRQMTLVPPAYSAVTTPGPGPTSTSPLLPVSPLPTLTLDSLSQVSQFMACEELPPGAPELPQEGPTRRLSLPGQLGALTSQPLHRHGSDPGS
Source text: For in vitro testing, the functional hERG assay using conventional patch clamp electrophysiology is considered the gold standard for assessment of drug interactions with the hERG potassium channel (Yao et al., Br. J. Pharmacol. 2008, 154, 1446-1456). In this assay, hERG channels are expressed in a human embryonic kidney (HEK293) cell line that lacks endogenous IKr.
The objective of this study was to examine the in vitro effects of test articles on the hERG (human ether-à-go-go-related gene) potassium channel current (a surrogate for IKr, the rapidly activating delayed rectifier cardiac potassium current).
All chemicals used in solution preparation were purchased from Sigma-Aldrich (St. Louis, Mo.) unless otherwise noted and were of ACS reagent grade purity or higher. Stock solutions of the test article and the positive control were prepared in dimethyl sulfoxide (DMSO) and stored frozen. Test article and positive control concentrations were prepared fresh daily by diluting stock solutions into a HEPES-buffered physiological saline (HB-PS) solution (composition in mM): NaCl, 137; KCl, 4.0; CaCl2, 1.8; MgCl2, 1; HEPES, 10; Glucose, 10; pH adjusted to 7.4 with NaOH (prepared weekly and refrigerated until use).
HEK/hERG • Organism: Homo sapiens • Designation: 293 • Tissue: Kidney; Transformed with adenovirus 5 DNA; Transfected with human-ether-a-go-go cDNA • Morphology: Epithelial • Age Stage Embryo • Source Strain: ATCC, Manassas, Va. • Source Substrain ChanTest Corporation, Cleveland, Ohio
HEK293 cells were stably transfected with hERG cDNA. Stable transfectants were selected by coexpression with the G418-resistance gene incorporated into the expression plasmid. Selection pressure was maintained by including G418 in the culture medium. Cells were cultured in Dulbecco's Modified Eagle Medium/Nutrient Mixture F-12 (D-MEM/F-12) supplemented with 10% fetal bovine serum, 100 U/mL penicillin G sodium, 100 μg/mL streptomycin sulfate and 500 μg/mL G418.
All experiments were performed at room temperature. Each cell acted as its own control.
Experiments were performed as outlined in the section entitled Experimental Procedures. Concentrations were selected to evaluate the concentration-response relationship of each test article based on the initial results or the solubility limits in vehicle. Each concentration was tested in at least three cells (n≧3).
Cells were transferred to the recording chamber and superfused with vehicle control solution. Micropipette solution for whole cell patch clamp recordings was composed of (mM): potassium aspartate, 130; MgCl2, 5; EGTA, 5; ATP, 4; HEPES, 10; pH adjusted to 7.2 with KOH. Pipette solution was prepared in batches, aliquoted, stored frozen, and a fresh aliquot was thawed each day. Patch pipettes were made from glass capillary tubing using a P-97 micropipette puller (Sutter Instruments, Novato, Calif.). A commercial patch clamp amplifier was used for whole cell recordings. Before digitization, current records were low-pass filtered at one-fifth of the sampling frequency.
Onset and steady state inhibition of hERG current was measured using a pulse pattern with fixed amplitudes (conditioning prepulse: +20 mV for 2 s; test pulse: −50 mV for 2 s) repeated at 10 s intervals, from a holding potential of −80 mV. Peak tail current was measured during the 2 s step to −50 mV.
Each test article at 10 μM was applied to at least 3 cells (n≧3).
One or more test article concentrations were applied sequentially (without washout between test substance concentrations) in ascending order, to each cell (n≧3). A steady state was maintained for at least 30 s before applying test article or positive control. Peak current was measured until a new steady state was achieved.
Steady state was defined by the limiting constant rate of change with time (linear time dependence). The steady state before and after test article application was used to calculate the percentage of current inhibited at each concentration. […]

Row | melting point [°C] | Structure (SMILES) | IC50 (P. falciparum strain D6) [nM] | IC50 (P. falciparum strain W2) [nM] | Average Days Survival ([1]; 4 mg/kg/day oral) | Average Days Survival ([1]; 8 mg/kg/day oral) | Average Days Survival ([1]; 16 mg/kg/day oral) | Average Days Survival ([1]; 32 mg/kg/day oral) | Average Days Survival ([1]; 64 mg/kg/day oral) | responders at 4 mg/kg ([1]; 4 mg/kg/day oral) [%] | responders at 8 mg/kg ([1]; 8 mg/kg/day oral) [%] | responders at 16 mg/kg ([1]; 16 mg/kg/day oral) [%] | responders at 32 mg/kg ([1]; 32 mg/kg/day oral) [%] | responders at 64 mg/kg ([1]; 64 mg/kg/day oral) [%] | IC50 (hERG potassium channel; HEK293/hERG, patch clamp, read-out: IC50 for the inhibitory effect on hERG potassium current) [nM] | Hill coefficient of hERG inhibition (hERG potassium channel; fit of concentration-response data) | inhibition at 0.3 µM (hERG potassium channel; human, HEK293 cells stably expressing hERG, pH 7.4, 0.3 μM, HEK293/hERG, room temperature, read-out: Mean percentage of hERG current inhibited) [%] | inhibition at 1 µM (hERG potassium channel; human, HEK293 cells stably expressing hERG, pH 7.4, 1 μM, HEK293/hERG, room temperature, read-out: Mean percentage of hERG current inhibited) [%] | inhibition at 3 µM (hERG potassium channel; human, HEK293 cells stably expressing hERG, pH 7.4, 3 μM, HEK293/hERG, room temperature, read-out: Mean percentage of hERG current inhibited) [%] | inhibition at 10 µM (hERG potassium channel; human, HEK293 cells stably expressing hERG, pH 7.4, 10 μM, HEK293/hERG, room temperature, read-out: Mean percentage of hERG current inhibited) [%]
1 | 229 to 232 | CC(C)(C)NCc1cc(C(C)(C)C)cc(-c2ccc(S(C)(=O)=O)nc2)c1O.Cl [Example 43, 4-(tert-Butyl)-2-((tert-butylamino)methyl)-6-(6-(methylsulfonyl)pyridin-3-yl)phenol hydrochloride] | 158 | 100 | – | – | – | – | – | – | – | – | – | – | – | – | – | – | – | –
2 | – | CC(C)(C)NCc1cc(C(C)(C)C)cc(-c2cnc(C(F)(F)F)c(Cl)c2)c1O.Cl [Example 44, 4-(tert-Butyl)-2-((tert-butylamino)methyl)-6-(5-chloro-6-(trifluoromethyl)pyridin-3-yl)phenol hydrochloride] | 11 | 6 | >31* days | >31* days | >31* days | >31* days | >31* days | 100 | 100 | 100 | 100 | 100 | – | – | – | – | – | –
3 | – | CC(C)(C)c1cc(CN(CC2CCCCC2)C(C)(C)C)c(O)c(-c2ccc(C(F)(F)F)nc2)c1.Cl [Example 58, 4-(tert-Butyl)-2-((tert-butyl(cyclohexylmethyl)amino)methyl)-6-(6-(trifluoromethyl)pyridin-3-yl)phenol hydrochloride] | 1020 | 541 | >17.5 days | >20 days | >23.8 days | >26 days | >31* days | 14.3 | 42.9 | 42.9 | 85.7 | 100 | – | – | – | – | – | –
4 | – | CC(C)(C)NCc1cc(-c2ccc(F)cc2)cc(-c2ccc(C(F)(F)F)nc2)c1O.Cl [Example 66, 3-((tert-Butylamino)methyl)-4′-fluoro-5-(6-(trifluoromethyl)pyridin-3-yl)-[1,1′-biphenyl]-4-ol hydrochloride] | 70 | 41 | >21.3 days | >26 days | >31* days | >24 days | >7 days | 14.3 | 85.7 | 100 | 85.7 | 85.7 | – | – | – | – | – | –
5 | – | CC(C)(C)NCc1cc(-c2ccc(Cl)cc2)cc(-c2ccc(C(F)(F)F)nc2)c1O.Cl [Example 70, 3-((tert-Butylamino)methyl)-4′-chloro-5-(6-(trifluoromethyl)pyridin-3-yl)-[1,1′-biphenyl]-4-ol hydrochloride] | 90 | 48 | >19.5 days | >21.5 days | >19 days | >31* days | >31* days | 42.9 | 71.4 | 57.1 | 100 | 100 | – | – | – | – | – | –
6 | – | CC(C)(C)c1cc2c(c(-c3ccc(C(F)(F)F)nc3)c1)OCN(C(C)(C)C)C2 [Example 75, 3,6-di-tert-Butyl-8-(6-(trifluoromethyl)pyridin-3-yl)-3,4-dihydro-2H-benzo[e][1,3]oxazine] | 20 | 12 | >22 days | >25 days | >31* days | >31* days | >31* days | 57.1 | 57.1 | 100 | 100 | 100 | – | – | – | – | – | –
7 | – | CC(C)(C)NCc1cc(C(C)(C)C)cc(-c2ccc(Cl)cc2)c1O [WR-194,965, 4-(tert-butyl)-2-(tert-butylaminomethyl)-6-(4-chlorophenyl)phenol, reference compound] | – | – | – | – | – | – | – | – | – | – | – | – | 1100 | 1.4 | 12.8 | 47.5 | 80.3 | 97.2

From patent US9409893B2, “Heteroaryl derivatives and uses thereof” (Jacobus Pharmaceutical Company, Inc., priority 2012, dated 2016)
